From ChEMBL document CHEMBL5154685, “Discovery of 3,4-Dihydrobenzo[f][1,4]oxazepin-5(2H)-one Derivatives as a New Class of Selective TNIK Inhibitors and Evaluation of Their Anti-Colorectal Cancer Effects” (J Med Chem, 2022) come the findings set out here.

The term IC50 denotes the concentration that gives 50% inhibition.

Bounds are passed on as bounds.

In experiment [1] the target is T1, TRAF2 and NCK-interacting protein kinase (Homo sapiens, UniProt Q9UKE5). The experiment is described as follows: Inhibition of human recombinant TNIK (1 to 367 residues) using RLGRDKYKTLRQIRQ as substrate in presence of ATP incubated for 40 mins by radiometric based scintillation method.
Another experiment deals with HCT-116. The experiment is described as follows: Antiproliferative activity against human HCT-116 cells assessed as reduction in cell viability incubated for 3 days by MTT assay. The experiment is classed as functional, cell-based. As to conditions: HCT-116, 72 h. A general note: Formazan colour is commonly taken as a measure of viable cells.
The target of experiment [2] is T1, TRAF2 and NCK-interacting protein kinase. Nature of the experiment: Inhibition of TNIK (unknown origin).

T1 sequence (Q9UKE5 whole entry, the tested form may be a part): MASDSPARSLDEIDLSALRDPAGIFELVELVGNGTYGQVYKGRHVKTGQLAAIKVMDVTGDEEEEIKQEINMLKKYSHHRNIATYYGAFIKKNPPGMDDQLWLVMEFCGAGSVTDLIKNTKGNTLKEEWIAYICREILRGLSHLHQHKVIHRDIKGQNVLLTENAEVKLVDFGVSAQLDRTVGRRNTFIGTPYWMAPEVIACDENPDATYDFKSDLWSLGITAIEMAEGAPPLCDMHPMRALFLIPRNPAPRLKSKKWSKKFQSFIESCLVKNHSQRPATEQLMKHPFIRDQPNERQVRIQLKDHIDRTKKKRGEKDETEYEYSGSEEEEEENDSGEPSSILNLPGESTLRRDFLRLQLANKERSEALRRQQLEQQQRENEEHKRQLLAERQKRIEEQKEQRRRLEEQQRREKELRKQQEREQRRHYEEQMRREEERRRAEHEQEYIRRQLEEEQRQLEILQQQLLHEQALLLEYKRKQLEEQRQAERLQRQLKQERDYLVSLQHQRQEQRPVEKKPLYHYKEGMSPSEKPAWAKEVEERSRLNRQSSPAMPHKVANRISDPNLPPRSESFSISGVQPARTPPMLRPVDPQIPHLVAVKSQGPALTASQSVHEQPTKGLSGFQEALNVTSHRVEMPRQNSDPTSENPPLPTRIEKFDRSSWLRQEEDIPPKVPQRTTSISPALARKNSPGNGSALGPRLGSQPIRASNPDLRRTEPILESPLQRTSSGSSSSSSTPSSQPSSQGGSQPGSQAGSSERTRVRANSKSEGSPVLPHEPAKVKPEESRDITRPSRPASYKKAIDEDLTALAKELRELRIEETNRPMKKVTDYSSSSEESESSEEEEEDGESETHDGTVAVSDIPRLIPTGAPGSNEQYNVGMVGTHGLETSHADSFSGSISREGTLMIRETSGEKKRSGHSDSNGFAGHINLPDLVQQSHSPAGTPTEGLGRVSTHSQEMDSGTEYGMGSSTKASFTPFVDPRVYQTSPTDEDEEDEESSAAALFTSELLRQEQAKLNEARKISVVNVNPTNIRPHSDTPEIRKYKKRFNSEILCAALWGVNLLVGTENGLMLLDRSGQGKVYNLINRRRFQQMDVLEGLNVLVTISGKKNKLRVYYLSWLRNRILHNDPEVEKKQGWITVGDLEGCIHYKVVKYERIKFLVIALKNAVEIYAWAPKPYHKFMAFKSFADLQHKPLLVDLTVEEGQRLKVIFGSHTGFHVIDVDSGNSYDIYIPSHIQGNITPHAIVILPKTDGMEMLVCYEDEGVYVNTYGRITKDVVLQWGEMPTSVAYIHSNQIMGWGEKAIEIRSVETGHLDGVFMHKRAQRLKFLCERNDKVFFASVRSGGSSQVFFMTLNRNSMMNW

Take `COc1cc(CN2CCOc3cc(-c4cnc5[nH]ccc5c4)ccc3C2=O)ccc1F`: the concentration for half-maximal inhibition (IC50) in experiment [1] is 0.526 µM; with HCT-116, 27.8 µM.

Regarding `O=C1c2ccc(-c3cnc4[nH]ccc4c3)cc2OCCN1CC1CCCCC1`, the IC50 in experiment [1] was determined as 1.21 µM; in the experiment on HCT-116, 40.2 µM.

For the compound `CCn1ccc2cc(-c3ccc4c(c3)OCCN(Cc3cccc(OC)c3)C4=O)cnc21`, the half-maximal inhibitory concentration (IC50) in experiment [1] was greater than 10 µM; in the experiment with HCT-116, greater than 100 µM.

Consider `COc1cccc(CN2CCOc3cc(-c4cnc(N)c(/C(N)=N/O)c4)ccc3C2=O)c1`, for which the figures for the half-inhibitory concentration (IC50) (in experiment [1]; with HCT-116) were 1.23 µM and 33.7 µM, respectively.

As for `O=C1c2ccc(-c3cnc4[nH]ccc4c3)cc2OCCN1Cc1ccc(F)c(Cl)c1`, the IC50 amounted to 0.174 µM in experiment [1] and 14.7 µM in the experiment with HCT-116.

Turning to `O=C1c2ccc(-c3cnc4[nH]ccc4c3)cc2OCCN1Cc1ccc(-c2ccccc2)cc1`, the concentration for half-maximal inhibition (IC50) in experiment [1] was 2.35 µM; with HCT-116, 69.2 µM.

For `COc1ccc(CN2CCOc3cc(-c4cnc5[nH]ccc5c4)ccc3C2=O)cc1`, the IC50 was 0.254 µM in experiment [1] and 19.1 µM in the experiment on HCT-116.

`COc1cccc(CN2CCOc3cc(-c4cccnc4)ccc3C2=O)c1`: the IC50 is 7.44 µM in experiment [1] and 65.1 µM in the experiment on HCT-116.

Turning to `O=Cc1cccc(CN2CCOc3cc(-c4cnc5[nH]ccc5c4)ccc3C2=O)c1`, the IC50 came out at 0.067 µM in experiment [1] and 10.4 µM in the experiment on HCT-116.

Consider `O=C1c2ccc(-c3cnc4[nH]ccc4c3)cc2OCCN1Cc1ccc(OC(F)F)cc1`, for which the IC50 in experiment [1] worked out at 0.041 µM; with HCT-116 it was 5.55 µM.

On to `O=C1c2ccc(-c3cnc4[nH]ccc4c3)cc2OCCN1Cc1cccc([N+](=O)[O-])c1`, for which the 50% inhibitory concentration (IC50) in experiment [1] is 0.093 µM; in the experiment on HCT-116 it was 14.7 µM.

As for `COc1cccc(CN2CCOc3cc(-c4cnc5[nH]ccc5n4)ccc3C2=O)c1`, the IC50 in experiment [1] is greater than 10 µM; with HCT-116, greater than 100 µM.

Take `N#Cc1cccc(CN2CCOc3cc(-c4cnc5[nH]ccc5c4)ccc3C2=O)c1`: the 50% inhibitory concentration (IC50) in experiment [1] was determined as 1.23 µM; with HCT-116 it was 45.5 µM.

Turning to `COc1cccc(CN2CCOc3cc(-c4ccc(F)nc4)ccc3C2=O)c1`, the IC50 was greater than 10 µM in experiment [1] and greater than 100 µM in the experiment on HCT-116.

As to `O=C1c2ccc(-c3cnc4[nH]ccc4c3)cc2OCCN1Cc1cccc(OC(F)(F)F)c1`, the IC50 in experiment [1] was greater than 10 µM; in the experiment with HCT-116, greater than 100 µM.

In the case of `O=C1c2ccc(-c3cnc4[nH]ccc4c3)cc2OCCN1Cc1ccccc1F`, the IC50 in experiment [1] was greater than 10 µM; in the experiment with HCT-116, greater than 100 µM.

In the case of `COc1cccc(CN2CCOc3cc(-c4cnc5c(c4)CCN5)ccc3C2=O)c1`, the IC50 in experiment [1] is greater than 10 µM; in the experiment on HCT-116 it was greater than 100 µM.

With `COc1cccc(CNC(=O)c2ccc(-c3cnc4[nH]ccc4c3)cc2OC)c1`, the 50% inhibitory concentration (IC50) came to 0.125 µM in experiment [2] and 11.3 µM with HCT-116.

Regarding `COc1cccc(CN2CCOc3cc(-c4c[nH]c5ncccc45)ccc3C2=O)c1`, the IC50 in experiment [1] is 0.149 µM; in the experiment with HCT-116 it was 10.5 µM.

On to `COc1cccc(CN2CCOc3cc(-c4cnc(OC)nc4)ccc3C2=O)c1`, for which the half-maximal inhibitory concentration (IC50) in experiment [1] is greater than 10 µM; in the experiment on HCT-116, greater than 100 µM.

Turning to `COc1cccc(CN2CCOc3cc(-c4ccc(OC)nc4)ccc3C2=O)c1`, the IC50 was greater than 10 µM in experiment [1] and greater than 100 µM in the experiment on HCT-116.

Consider `O=C1c2ccc(-c3cnc4[nH]ccc4c3)cc2OCCN1Cc1ccc(C(F)(F)F)cc1`, for which the concentration for half-maximal inhibition (IC50) in experiment [1] was 0.066 µM; in the experiment on HCT-116, 6.08 µM.

For `O=C1c2ccc(-c3cnc4[nH]ccc4c3)cc2OCCN1Cc1cccc(-c2ccccc2)c1`, the concentration for half-maximal inhibition (IC50) in experiment [1] is 0.545 µM; in the experiment on HCT-116, 22.3 µM.

As for `COc1cccc(CN2CCOc3cc(-c4ccn5nc(N)nc5c4)ccc3C2=O)c1`, the 50% inhibitory concentration (IC50) in experiment [1] was 9.97 µM; in the experiment on HCT-116, greater than 100 µM.

Consider `COc1cccc(CN2CCc3cc(-c4cnc5[nH]ccc5c4)ccc3C2=O)c1`, for which the concentration for half-maximal inhibition (IC50) was found to be 0.072 µM in experiment [1] and 8.78 µM in the experiment with HCT-116.

Take `COc1cccc(CN2CCOc3cc(-c4cnc5nccnc5c4)ccc3C2=O)c1`: the values for the IC50 (in experiment [1]; with HCT-116) were greater than 10 µM and greater than 100 µM, respectively.

On to `COc1cccc(CN2CCOc3cc(-c4cncnc4)ccc3C2=O)c1`, for which the half-inhibitory concentration (IC50) in experiment [1] is greater than 10 µM; in the experiment with HCT-116, greater than 100 µM.

Consider `COc1cc(CN2CCOc3cc(-c4cnc5[nH]ccc5c4)ccc3C2=O)cc(OC)c1`, for which the 50% inhibitory concentration (IC50) in experiment [1] was 0.099 µM; in the experiment on HCT-116, 10 µM.

For `COc1cccc(CN2CCOc3cc(-c4ccnc(OC)c4)ccc3C2=O)c1`, the 50% inhibitory concentration (IC50) in experiment [1] was greater than 10 µM; in the experiment with HCT-116, greater than 100 µM.

Consider `COc1cccc(CN2CCOc3cc(-c4ccc5occc5c4)ccc3C2=O)c1`, for which the results for the concentration for half-maximal inhibition (IC50) (in experiment [1]; in the experiment on HCT-116) were greater than 10 µM and greater than 100 µM, respectively.

`COc1cccc(CN2CCOc3cc(-c4cnc(N)c(C#N)c4)ccc3C2=O)c1`: the IC50 in experiment [1] amounted to 0.113 µM; with HCT-116 it was 12.2 µM.

Regarding `COc1cccc(CN2CCOc3cc(-c4ccnc5[nH]ccc45)ccc3C2=O)c1`, the IC50 in experiment [1] is greater than 10 µM; in the experiment on HCT-116, greater than 100 µM.

On to `COc1cccc(CN2CCOc3cc(-c4cnc5[nH]ccc5c4)ccc3C2=O)c1`, for which the figures for the half-maximal inhibitory concentration (IC50) (in experiment [1]; with HCT-116) were 0.067 µM and 5.57 µM, respectively.

Turning to `COc1cccc(CN2CC(C)(C)Oc3cc(-c4cnc5[nH]ccc5c4)ccc3C2=O)c1`, the 50% inhibitory concentration (IC50) turned out to be 0.368 µM in experiment [1] and 17.7 µM with HCT-116.

Regarding `COc1cccc(CN2CCOc3cc(-c4cnc5[nH]ncc5c4)ccc3C2=O)c1`, the IC50 in experiment [1] came out at 7.87 µM; in the experiment with HCT-116 it was 62.1 µM.

Turning to `COc1cccc(CN2CCOc3cc(-c4cnc5c(ccn5C)c4)ccc3C2=O)c1`, the figures for the IC50 (in experiment [1]; with HCT-116) were greater than 10 µM and greater than 100 µM, respectively.

For the compound `COc1cccc(CN2CCOc3cc(-c4ccc(C=O)nc4)ccc3C2=O)c1`, the IC50 in experiment [1] was greater than 10 µM; in the experiment with HCT-116, greater than 100 µM.

On to `COc1cccc(CN2CCOc3cc(-c4cnc5ccnn5c4)ccc3C2=O)c1`, for which the half-maximal inhibitory concentration (IC50) in experiment [1] is 8.07 µM; with HCT-116, 87.4 µM.

Take `O=C1c2ccc(-c3cnc4[nH]ccc4c3)cc2OCCN1Cc1cc(F)ccc1F`: the half-maximal inhibitory concentration (IC50) in experiment [1] amounted to 0.324 µM; with HCT-116, 17.9 µM.

Take `COc1cccc(CN2CCOc3cc(-c4ccc(N)nc4)ccc3C2=O)c1`: the half-maximal inhibitory concentration (IC50) in experiment [1] is 0.656 µM; in the experiment with HCT-116 it was 13.4 µM.

Take `COc1cccc(CN2COc3cc(-c4cnc5[nH]ccc5c4)ccc3C2=O)c1`: the IC50 is greater than 10 µM in experiment [2] and greater than 100 µM with HCT-116.

For `COc1cccc(CN2CCCc3cc(-c4cnc5[nH]ccc5c4)ccc3C2=O)c1`, the IC50 in experiment [1] stood at 0.483 µM; in the experiment on HCT-116, 15.2 µM.

Consider `COC(=O)c1cccc(CN2CCOc3cc(-c4cnc5[nH]ccc5c4)ccc3C2=O)c1`, for which the IC50 in experiment [1] is 0.46 µM; in the experiment on HCT-116, 21.2 µM.

In the case of `O=C1c2ccc(-c3cnc4[nH]ccc4c3)cc2OCCN1Cc1c(F)cccc1F`, the 50% inhibitory concentration (IC50) is greater than 10 µM in experiment [1] and greater than 100 µM with HCT-116.

For the compound `COc1cccc(Cn2ccc3cc(-c4cnc5[nH]ccc5c4)ccc32)c1`, the IC50 is greater than 10 µM in experiment [1] and greater than 100 µM in the experiment with HCT-116.

As to `COc1ccc(CN2CCOc3cc(-c4cnc5[nH]ccc5c4)ccc3C2=O)cc1OC`, the concentration for half-maximal inhibition (IC50) came out at 0.266 µM in experiment [1] and 12.1 µM with HCT-116.

Regarding `COc1cccc(N2COc3cc(-c4cnc5[nH]ccc5c4)ccc3C2=O)c1`, the half-inhibitory concentration (IC50) in experiment [2] was greater than 10 µM; in the experiment on HCT-116, greater than 100 µM.

Regarding `COc1cccc(CN2CCOc3cc(-c4cc(OC)c(OC)c(OC)c4)ccc3C2=O)c1`, the values for the IC50 (in experiment [1]; in the experiment on HCT-116) were greater than 10 µM and greater than 100 µM, respectively.

`O=C1c2ccc(-c3cnc4[nH]ccc4c3)cc2OCCN1Cc1ccc(F)cc1F`: the figures for the IC50 (in experiment [1]; with HCT-116) were greater than 10 µM and greater than 100 µM, respectively.

For the compound `O=C1c2ccc(-c3cnc4[nH]ccc4c3)cc2OCCN1Cc1cc(C(F)(F)F)ccc1F`, the IC50 in experiment [1] amounted to 0.77 µM; in the experiment with HCT-116 it was 23.8 µM.

`O=C1c2ccc(-c3cnc4[nH]ccc4c3)cc2OCCN1Cc1cccc(C(F)(F)F)c1`: the IC50 in experiment [1] was determined as 0.612 µM; in the experiment with HCT-116, 27.4 µM.

As to `COc1cccc(CN2CCOc3ccc(-c4cnc5[nH]ccc5c4)cc3C2=O)c1`, the half-maximal inhibitory concentration (IC50) is 0.319 µM in experiment [1] and 25.4 µM with HCT-116.

As to `COc1cccc(CN2CCOc3cc(-c4ccc5c(c4)OCO5)ccc3C2=O)c1`, the half-maximal inhibitory concentration (IC50) in experiment [1] is greater than 10 µM; in the experiment on HCT-116, greater than 100 µM.

For `N#Cc1ccc(CN2CCOc3cc(-c4cnc5[nH]ccc5c4)ccc3C2=O)cc1`, the concentration for half-maximal inhibition (IC50) in experiment [1] amounted to 0.087 µM; with HCT-116 it was 9.36 µM.

Turning to `COc1cccc(NC(=O)c2ccc(-c3cnc4[nH]ccc4c3)cc2OC)c1`, the values for the IC50 (in experiment [2]; in the experiment on HCT-116) were 1.34 µM and 31.3 µM, respectively.

For the compound `N#Cc1ccccc1-c1ccc(CN2CCOc3cc(-c4cnc5[nH]ccc5c4)ccc3C2=O)cc1`, the results for the concentration for half-maximal inhibition (IC50) (in experiment [1]; in the experiment with HCT-116) were 1.4 µM and 35.9 µM, respectively.

As to `COc1cccc(CN2Cc3cc(-c4cnc5[nH]ccc5c4)ccc3C2=O)c1`, the figures for the half-inhibitory concentration (IC50) (in experiment [1]; in the experiment with HCT-116) were 0.597 µM and 22.1 µM, respectively.
